Assay results published in US5733913A, “6-Aryl pyrido[2,3-d] pyrimidines and naphthyridines for inhibiting protein tyrosine kinase mediated cellular proliferation” (priority 1995, dated 1998).
Where two headings read alike, the source gives them in different places.

Legend:
[1] = target: T1, mouse PDGF-β receptor tyrosine kinase (Mus musculus, UniProt P05622); assay: PDGF receptor tyrosine kinase assay; assay type: biochemical; conditions: read-out: Inhibition of Protein Tyrosine Kinases, PDGF, IC50
T1 construct: a fragment of DNA that codes for the intracellular tyrosine kinase domain; made in house; host or cells: Sf9 insect cells (baculovirus), cell lysate
How it was run: (§1)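 Intracellular kinase domains expressed in baculovirus-infected SF9 cells; crude lysate used as enzyme. Inhibitor preincubated 10 min at 25 °C with lysate in pH 7.0 Hepes buffer with 10 mM MnCl2 and poly(Glu-Tyr) 4:1, then γ-32P-ATP (50 μM ATP) added for 10 min at 25 °C. TCA-precipitated 32P on filters counted, no-enzyme background subtracted.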

[2] = target: T2, human FGF-1 (flg) receptor tyrosine kinase (Homo sapiens, UniProt P11362); assay: FGF receptor tyrosine kinase assay; assay type: biochemical; conditions: read-out: Inhibition of Protein Tyrosine Kinases, FGF, IC50
T2 construct: a fragment of DNA that codes for the intracellular tyrosine kinase domain; made in house; host or cells: Sf9 insect cells (baculovirus), cell lysate
How it was run: as §1

V-src kinase = V-src kinase assay; assay type: biochemical; conditions: at 50 μM
Procedure: V-src and C-src Kinase Assays
V-src or C-src kinase is purified from baculovirus infected insect cell lysates using an antipeptide monoclonal antibody directed against the N-terminal 2-17 amino acids. The antibody, covalently linked to 0.65-μm latex beads, is added to a suspension of insect cell lysis buffer comprised of 150 mM NaCl, 50 mM Tris pH 7.5, 1 mM DTT, 1% NP-40, 2 mM EGTA, 1 mM sodium vanadate, 1 mM PMSF, 1 μg/mL each of leupeptin, pepstatin, and aprotinin. Insect cell lysate containing either the c-src or v-src protein is incubated with these beads for 3-4 hours at 4° C. with rotation. At the end of the lysate incubation, the beads are rinsed 3 times in lysis buffer, resuspended in lysis buffer containing 10% glycerol, and frozen. These latex beads are thawed, rinsed three times in assay buffer which is comprised of 40 mM tris pH 7.5, 5 mM MgCl2, and suspended in the same buffer. In a Millipore 96-well plate with a 0.65 μm polyvinylidine membrane bottom are added the reaction components: 10-μL v-src or c-src beads, 10 μL of 2.5 mg/mL poly GluTyr substrate, 5 μM ATP containing 0.2 μCi labeled ^32 P-ATP, 5μL DMSO containing inhibitors or as a solvent control, and buffer to make the final volume 125 μL. The reaction is started at room temperature by addition of the ATP and quenched 10 minutes later by the addition of 125 μL of 30% TCA, 0.1M sodium pyrophosphate for 5 minutes on ice. The plate is then filtered and the wells washed with two 250-μL aliquots of 15% TCA, 0.1M pyrophosphate. The filters are punched, counted in a liquid scintillation counter, and the data examined for inhibitory activity in comparison to a known inhibitor such as erbstatin. The method is described more fully in J. Med. Chem., 37:598-609 (1994).

PDGF receptor = PDGF receptor autophosphorylation in RASMC; assay type: cell-based, rat; conditions: PDGF-BB 30 ng/mL, read-out: Inhibition of PDGF Stimulated Receptor Auto Phosphorylation (IC50)
Procedure: Rat aorta smooth muscle cells (RASMC) were isolated from the thoracic aorta of rats and explanted according to the method of Ross, J. Cell. […] Cells were grown in Dulbecco's modified Eagle's medium (DMEM, Gibco) containing 10% fetal calf serum (FBS, Hyclone, Logan, Utah), 1% glutamine (Gibco) and 1% penicillin/streptomycin (Gibco). Cells were identified as smooth muscle cells by their "hill and valley" growth pattern and by fluorescent staining with a monoclonal antibody specific for SMC μ-actin (Sigma). RASMC were used between passages 5 and 20 for all experiments. Test compounds were prepared in dimethylsulfoxide (DMSO) in order to achieve consistency in the vehicle and to ensure compound solubility. Appropriate DMSO controls were simultaneously evaluated with the test compounds.
PDGF Receptor Autophosphorylation
RASMC were grown to confluency in 100 mm dishes. Growth medium was removed and replaced with serum-free medium and cells were incubated at 37° C. for an additional 24 hours. Test compounds were then added directly to the medium and cells incubated for an additional 2 hours. After 2 hours, PDGF-BB was added at a final concentration of 30 ng/mL for 5 minutes at 37° C. to stimulated autophosphorylation of the PDGF receptor. Following growth factor treatment, the medium was removed, and cells were washed with cold phosphate-buffered saline and immediately lysed with 1 mL of lysis buffer (50 mM HEPES[pH 7.5], 150 mM NaCl, 10% glycerol, 1% Triton X-100, 1 mM EDTA, 1 mMEGTA, 50 mM NaF, 1 mM sodium orthovanadate, 30 mM p-nitrophenyl phosphate, 10 mM sodium pyrophosphate, 1 mM phenylmethyl sulfonyl fluoride, 10 μg/mL aprotinin, and 10 μg/mL leupeptin). Lysates were centrifuged at 10,000×g for 10 minutes. […] Following the incubation, protein-A-sepharose beads were added for 2 hours with continuous mixing, and immune complexes bound to the beads washed 4 times with 1 mL lysis wash buffer. Immune complexes were solubilized in 30 μL of Laemmli sample buffer and electrophoresed in 4-20% SDS polyacrylamide gels. Following electrophoresis, separated proteins were transferred to nitrocellulose and immunoblotted with anti-phosphotyrosine antiserum. […] IC50 values were generated from the densitometric data.

[3] = tested on: Rat aorta smooth muscle cells (RASMC); assay: [3H]-Thymidine incorporation assay in RASMC; assay type: cell-based; conditions: read-out: Inhibition of Growth Factor Stimulated Uptake of [3H]-thymidine (IC50)
Procedure: Cell Culture Rat aorta smooth muscle cells (RASMC) were isolated from the thoracic aorta of rats and explanted according to the method of Ross, J. Cell. Biol., 30:172-186 (1971). Cells were grown in Dulbecco's modified Eagle's medium (DMEM, Gibco) containing 10% fetal calf serum (FBS, Hyclone, Logan, Utah), 1% glutamine (Gibco) and 1% penicillin/streptomycin (Gibco). Cells were identified as smooth muscle cells by their "hill and valley" growth pattern and by fluorescent staining with a monoclonal antibody specific for SMC […] (Sigma). RASMC were used between passages 5 and 20 for all experiments. Test compounds were prepared in dimethylsulfoxide (DMSO) in order to achieve consistency in the vehicle and to ensure compound solubility. Appropriate DMSO controls were simultaneously evaluated with the test compounds. […] RASMC were plated into a 24-well plate (30,000 cells/well) in DMEM with 10% FBS. After 4 days, cells reached confluence and were made quiescent by incubation in DMEM/F12 medium (Gibco) containing 0.2% FBS for another 2 days. […] […] The acid-insoluble fraction was lysed in 0.75 mL 0.25N NaOH and the radioactivity determined by liquid scintillation counting. IC50 values were determined graphically.

[4] = target: T3, Human EGF receptor tyrosine kinase (Homo sapiens, UniProt P00533); assay: EGF receptor tyrosine kinase assay; assay type: biochemical; conditions: read-out: Inhibition of Protein Tyrosine Kinases, EGF, IC50
T3 construct: isolated from A431 epidermoid carcinoma cells; endogenous in cells; host or cells: A431 epidermoid carcinoma cells (Triton lysate, wheat germ agglutinin eluate)
Procedure: Purification of Epidermal Growth Factor Receptor Tyrosine Kinase
Human EGF receptor tyrosine kinase was isolated from A431 epidermoid carcinoma cells by the following methods. Cells were grown in roller bottles in 50% Delbuco's Modified Eagle and 50% HAM F-12 nutrient media (Gibco) containing 10% fetal calf serum. Approximately 10^9 cells were lysed in two volumes of buffer containing 20 mM 2-(4N-[2-hydroxyethyl]piperazin-1-yl)ethanesulfonic acid, pH 7.4, 5 mM ethylene glycol bis(2-aminoethyl ether)N,N,N',N'-tetraacetic acid, 1% Triton X-100, 10% glycerol, 0.1 mM sodium orthovanadate, 5 mM sodium fluoride, 4 mM pyrophosphate, 4 mM benzamide, 1 mM dithiothreitol, 80 μg/mL aprotinin, 40 μg/mL leupeptin, and 1 mM phenylmethylsulfonyl fluoride. After centrifugation at 25,000×g for 10 minutes, the supernatant was equilibrated for 2 hours at 4° C. with 10 mL of wheat germ agglutinin sepharose that was previously equilibrated with 50 mM Hepes, 10% glycerol, 0.1% Triton X-100 and 150 mM NaCl, pH 7.5, (equilibration buffer). Contaminating proteins were washed from the resin with 1M NaCl in equilibration buffer, and the enzyme was eluted with 0.5M N-acetyl-1-D-glucosamine in equilibration buffer.
Determination of IC50 Values
The reaction was terminated by the addition of 2 mL of 75 mM phosphoric acid and passed through a 2.5-cm phosphocellulose filter disc to bind the peptide. The filter was washed five times with 75 mM phosphoric acid and placed in a vial along with 5 mL of scintillation fluid (Ready gel Beckman).

C-src kinase = target: T4, C-src kinase (Homo sapiens, UniProt P12931); assay: C-src kinase assay; assay type: biochemical; conditions: read-out: Inhibition of Protein Tyrosine Kinases, C-src, IC50
T4 construct: made in house; host or cells: baculovirus-infected insect cells
How it was run: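 Baculovirus-expressed c-src immunopurified on antibody-coated latex beads, assayed in 40 mM Tris pH 7.5, 5 mM MgCl2 with poly GluTyr substrate and 5 μM ATP plus 32P-ATP. Reaction 10 min at room temperature, TCA-quenched, filtered; incorporated label counted by scintillation.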

Streptococcus pneumoniae = assay: standard in vitro assays of antibacterial activity; assay type: cell-based; conditions: Gram+ bacterial strain
Source text: These compounds are potent inhibitors of one or more of the protein kinases, PDGF, FGF, EGF, V-src, and C-src. The invention compounds are thus useful in treating atherosclerosis, restenosis, and cancer. Specific tumors to be treated with the compounds include small-cell lung carcinoma such as that described in An. Rev. Respir. Dis., 142:554-556 (1990); human breast cancer as described in Cancer Research, 52:4773-4778 (1992); low grade human bladder carcinomas of the type described in Cancer Research, 52:1457-1462 (1992); human colorectal cancer as discussed in J. Clin. Invest., 91:53-60 (1993); and in J. Surg. Res., 54:293-294 (1993). The compounds also are useful as antibiotics against bacteria such as Streptococcus pneumoniae. […] The compounds additionally are useful as herbicides against a wide variety of undesirable plants such as broad leaf weeds and grasses.

T1 sequence (P05622 599-961 limits assumed): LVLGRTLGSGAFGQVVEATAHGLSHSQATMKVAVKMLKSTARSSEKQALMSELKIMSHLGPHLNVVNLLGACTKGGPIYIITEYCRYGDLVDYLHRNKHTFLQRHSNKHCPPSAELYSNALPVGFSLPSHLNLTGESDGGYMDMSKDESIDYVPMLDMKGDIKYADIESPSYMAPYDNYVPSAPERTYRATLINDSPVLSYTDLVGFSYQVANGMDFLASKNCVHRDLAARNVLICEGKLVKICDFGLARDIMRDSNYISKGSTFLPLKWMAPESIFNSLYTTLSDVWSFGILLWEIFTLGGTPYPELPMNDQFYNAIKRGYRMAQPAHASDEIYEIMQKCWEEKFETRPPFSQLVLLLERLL
T3 sequence (P00533 25-1210): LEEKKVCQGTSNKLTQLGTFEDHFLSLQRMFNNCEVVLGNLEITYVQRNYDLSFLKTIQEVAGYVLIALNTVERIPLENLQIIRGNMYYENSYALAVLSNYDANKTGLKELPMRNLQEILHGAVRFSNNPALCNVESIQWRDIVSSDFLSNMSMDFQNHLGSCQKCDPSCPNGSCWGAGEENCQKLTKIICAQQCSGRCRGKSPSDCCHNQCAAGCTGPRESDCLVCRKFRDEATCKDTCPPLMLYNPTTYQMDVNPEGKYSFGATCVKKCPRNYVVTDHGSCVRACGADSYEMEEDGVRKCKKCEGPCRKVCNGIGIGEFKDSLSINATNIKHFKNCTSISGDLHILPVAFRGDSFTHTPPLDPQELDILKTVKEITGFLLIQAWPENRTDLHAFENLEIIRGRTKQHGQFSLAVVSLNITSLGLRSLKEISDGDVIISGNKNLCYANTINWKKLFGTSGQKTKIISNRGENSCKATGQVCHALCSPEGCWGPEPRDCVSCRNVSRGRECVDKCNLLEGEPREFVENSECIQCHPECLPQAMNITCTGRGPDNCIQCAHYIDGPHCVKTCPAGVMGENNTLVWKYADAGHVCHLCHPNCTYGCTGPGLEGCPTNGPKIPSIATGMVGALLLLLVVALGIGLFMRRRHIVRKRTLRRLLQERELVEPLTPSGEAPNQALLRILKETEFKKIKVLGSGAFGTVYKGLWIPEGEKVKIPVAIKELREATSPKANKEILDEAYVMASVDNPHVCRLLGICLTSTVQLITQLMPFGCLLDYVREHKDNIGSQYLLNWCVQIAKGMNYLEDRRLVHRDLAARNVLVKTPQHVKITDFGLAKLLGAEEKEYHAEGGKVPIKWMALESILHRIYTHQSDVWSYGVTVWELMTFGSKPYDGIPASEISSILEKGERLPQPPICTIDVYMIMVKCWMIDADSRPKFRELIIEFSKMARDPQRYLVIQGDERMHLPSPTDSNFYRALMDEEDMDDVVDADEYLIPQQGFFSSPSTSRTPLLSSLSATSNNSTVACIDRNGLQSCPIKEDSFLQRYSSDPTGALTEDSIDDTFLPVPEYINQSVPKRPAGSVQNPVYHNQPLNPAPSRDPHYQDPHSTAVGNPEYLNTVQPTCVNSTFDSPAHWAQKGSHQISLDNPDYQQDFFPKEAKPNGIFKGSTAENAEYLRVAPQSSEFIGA
T4 sequence (P12931 whole entry): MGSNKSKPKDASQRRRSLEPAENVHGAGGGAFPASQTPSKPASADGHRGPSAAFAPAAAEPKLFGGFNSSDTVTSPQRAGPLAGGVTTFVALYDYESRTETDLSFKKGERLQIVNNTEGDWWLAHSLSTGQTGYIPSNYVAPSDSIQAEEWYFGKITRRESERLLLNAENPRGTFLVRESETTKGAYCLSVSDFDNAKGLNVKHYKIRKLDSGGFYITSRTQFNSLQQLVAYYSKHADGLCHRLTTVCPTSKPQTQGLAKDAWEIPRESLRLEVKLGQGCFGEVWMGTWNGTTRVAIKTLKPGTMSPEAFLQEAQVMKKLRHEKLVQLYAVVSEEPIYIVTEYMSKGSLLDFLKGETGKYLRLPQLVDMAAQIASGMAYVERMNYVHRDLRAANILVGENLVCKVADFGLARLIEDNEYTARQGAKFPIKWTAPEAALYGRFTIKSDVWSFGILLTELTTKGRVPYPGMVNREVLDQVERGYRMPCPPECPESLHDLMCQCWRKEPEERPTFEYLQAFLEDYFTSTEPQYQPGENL
T2 sequence (P11362 478-767 limits assumed): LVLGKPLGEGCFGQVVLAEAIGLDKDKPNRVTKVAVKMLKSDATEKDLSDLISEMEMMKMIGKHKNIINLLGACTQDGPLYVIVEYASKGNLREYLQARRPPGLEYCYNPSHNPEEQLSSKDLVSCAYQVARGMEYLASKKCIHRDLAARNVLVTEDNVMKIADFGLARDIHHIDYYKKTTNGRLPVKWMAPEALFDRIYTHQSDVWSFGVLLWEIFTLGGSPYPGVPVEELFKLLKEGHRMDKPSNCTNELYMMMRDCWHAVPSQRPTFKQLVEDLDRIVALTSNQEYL

Structure (SMILES)	IC50 [1] [nM]	IC50 [2] [nM]	Inhibition of Protein Tyrosine Kinases, V-src, % Inhibition (V-src kinase) [%]	IC50 (PDGF receptor) [nM]	IC50 ([3]; FGF stimulated) [nM]	IC50 ([3]; PDGF stimulated) [nM]	IC50 [4] [nM]	IC50 (C-src kinase) [nM]	activity against Streptococcus pneumoniae (Streptococcus pneumoniae)
CC(C)(C)NC(=O)Nc1nc2nc(N)ncc2cc1-c1c(Cl)cccc1Cl [Example 3, 1-[2-Amino-6-(2,6-dichlorophenyl)-pyrido[2,3-d]pyrimidin-7-yl]-3-tert-butylurea]	1250	140	46.8	970	900	2700			
Cc1cccc(C)c1-c1cc2cnc(N)nc2nc1NC(=O)NC(C)(C)C [Example 6, 1-[2-Amino-6-(2,6-dimethylphenyl)-pyrido[2,3-d]pyrimidin-7-yl]-3-tert-butylurea]		397	39.8	350			457		
CCCCNc1nc2nc(N)ncc2cc1-c1ccccc1 [Example 9, N^7 -Butyl-6-phenyl-pyrido[2,3-d]pyrimidine-2,7-diamine]	25100	10600						18300	exhibited activity
Cc1ccccc1-c1cc2cnc(N)cc2nc1N [Example 16, 3-o-Tolyl-[1,6]naphthyridine-2,7-diamine]	10700	9210	10.3				7080	1380	
Nc1cc2nc(N)c(-c3ccccc3Cl)cc2cn1 [Example 17, 3-(2-Chlorophenyl)-[1,6]naphthyridine-2,7-diamine]	27000	4500	5.3				7220	2760	
Nc1cc2nc(N)c(-c3c(Cl)cccc3Cl)cc2cn1 [Example 18, 3-(2,6-Dichlorophenyl)-[1,6]-naphthyridine-2,7-diamine]	21300	1190	21.4				18200	514	exhibited activity
